According to patent US12364733B1, “Method for treating septic shock” (Inotrem, priority 2018, dated 2025):

System: septic shock patients
Assay: Phase IIa clinical trial with nangibotide in septic shock patients: SOFA score evolution
Assay type: in vivo, human
Procedure: This was a randomized, double-blind, two-stage, placebo-controlled study. As described in FIG. 7, the study was composed of 2 stages with a similar treatment regimen, in which 0.3, 1.0 or 3.0 mg/kg/h of nangibotide (corresponding to peptide LR12, having an amino acid sequence as set forth in SEQ ID NO: 9, also known as motrem) was tested versus placebo. All patients with a diagnosis of septic shock were considered for study participation. All potential study patients underwent standard care management procedures. Patients with evidence of septic shock according to the Sepsis-3 definition (Singer et al, JAMA 2016) were considered for inclusion (i.e., patients suffering from sepsis and having (i) persisting hypotension requiring vasopressors to maintain their mean arterial pressure ≥65 mm Hg and (ii) a serum lactate level >2 mmol/L (18 mg/dL) despite adequate volume resuscitation).
After screening for eligibility, patients were randomized to one of the treatment arms. Then, they received either a 5 mg/kg loading dose of nangibotide over 15 minutes followed by a continuous intravenous (i.v.) infusion of nangibotide or a matching placebo on top of standard of care. Treatment with study drug was initiated as early as possible, but no later than 24 hours after the onset of septic shock, defined by the start of vasopressor therapy. Patients were treated until 12 (±2) hours after the resolution of their septic shock (defined as vasopressor withdrawal) with a maximum treatment duration of 5 days (120 hours).
Adverse events (AEs) were coded using the MedDRA dictionary version 18.1. Treatment-emergent adverse events (TEAEs) were summarized and listed. Analysis was performed in 49 septic shock patients. The demographic and baseline characteristics were summarized in a descriptive fashion within each population: categorical variables were summarized by contingency tables (frequencies and percentages). sTREM-1 levels at day 1 were also described (mean, standard deviation, standard error, median, quartiles and range, minimum and maximum values). Mortality rates were reported by frequency and percentage. For continuous endpoints, i.e., the sequential organ failure assessment (SOFA), missing data were imputed using LOCF (Last Observation Carry-Forward). For time-to-event analyses, i.e., duration of invasive mechanical ventilation (IMV), duration of continuous renal replacement therapy (CRRT), survival, censored data techniques were utilized. In addition, a sensitivity analysis of time to event data (except survival) was performed using censoring at maximum limit for the corresponding observation period (i.e., either day 28 or day 90). […] The following comparisons were made: each nangibotide dose arm to placebo, all nangibotide doses combined versus placebo, and dose-response using an ordinal trend test. Exploratory composite endpoint: incidence (number and proportion) of patients alive at day 28 and free of vasopressor, free of IMV and free of CRRT were summarized by treatment and compared between treatments with a Fisher's exact test. For pharmacodynamic markers, log transformed data were represented as percentage change from baseline at day 5 or End of Infusion (EOI) if end of infusion was stopped before day 5. […] “All nangibotide” refers to analyses obtained by pooling data from 0.3, 1 and 3 mg/kg/h nangibotide-treated groups.

[1] = patients with low sTREM-1 at baseline (below median 433 pg/mL), Day 3, 3.0 mg/kg/h
[2] = patients with low sTREM-1 at baseline (below median 433 pg/mL), Day 3, all nangibotide doses pooled
[3] = patients with low sTREM-1 at baseline (below median 433 pg/mL), Day 4, 0.3 mg/kg/h
[4] = patients with low sTREM-1 at baseline (below median 433 pg/mL), Day 4, 1.0 mg/kg/h
[5] = patients with low sTREM-1 at baseline (below median 433 pg/mL), Day 4, 3.0 mg/kg/h
[6] = patients with low sTREM-1 at baseline (below median 433 pg/mL), Day 4, all nangibotide doses pooled
[7] = patients with low sTREM-1 at baseline (below median 433 pg/mL), Day 5, 1.0 mg/kg/h
[8] = whole population, Day 1, 0.3 mg/kg/h
[9] = whole population, Day 1, 1.0 mg/kg/h
[10] = whole population, Day 1, 3.0 mg/kg/h
[11] = whole population, Day 1, all nangibotide doses pooled
[12] = whole population, Day 2, 0.3 mg/kg/h
[13] = whole population, Day 2, 1.0 mg/kg/h
[14] = whole population, Day 2, 3.0 mg/kg/h
[15] = whole population, Day 2, all nangibotide doses pooled
[16] = whole population, Day 3, 0.3 mg/kg/h
[17] = whole population, Day 3, 1.0 mg/kg/h
[18] = whole population, Day 3, 3.0 mg/kg/h
[19] = whole population, Day 3, all nangibotide doses pooled
[20] = whole population, Day 4, 0.3 mg/kg/h
[21] = whole population, Day 4, 1.0 mg/kg/h
[22] = whole population, Day 4, 3.0 mg/kg/h
[23] = whole population, Day 4, all nangibotide doses pooled
[24] = whole population, Day 5, 1.0 mg/kg/h

“nangibotide (LQEEDAGEYGCM; TLT-1 peptide)” was tested, and the “SOFA score evolution (change versus baseline, LOCF), LSMean (SE)” value [1] was −2.10 (1.35), the “SOFA score, estimated difference (SE) vs. placebo” value [1] was 0.01 (1.69) and the “SOFA score evolution (change versus baseline, LOCF), LSMean (SE)” value [2] was −2.10 (0.67). The “SOFA score, estimated difference (SE) vs. placebo” value [2] was 0.02 (1.23), the “SOFA score evolution (change versus baseline, LOCF), LSMean (SE)” value [3] was −2.70 (0.94) and the “SOFA score, estimated difference (SE) vs. placebo” value [3] was −0.57 (1.32). The “SOFA score evolution (change versus baseline, LOCF), LSMean (SE)” value [4] was −1.79 (1.03), the “SOFA score, estimated difference (SE) vs. placebo” value [4] was 0.34 (1.41) and the “SOFA score evolution (change versus baseline, LOCF), LSMean (SE)” value [5] was −2.62 (1.24). For the same substance, the “SOFA score, estimated difference (SE) vs. placebo” value [5] was −0.49 (1.55), the “SOFA score evolution (change versus baseline, LOCF), LSMean (SE)” value [6] was −2.37 (0.62) and the “SOFA score, estimated difference (SE) vs. placebo” value [6] was −0.24 (1.13). The “SOFA score evolution (change versus baseline, LOCF), LSMean (SE)” value (patients with low sTREM-1 at baseline (below median 433 pg/mL), Day 5, 0.3 mg/kg/h) was −2.71 (1.10), the “SOFA score, estimated difference (SE) vs. placebo” value (patients with low sTREM-1 at baseline (below median 433 pg/mL), Day 5, 0.3 mg/kg/h, 0.3 mg/kg) was −0.71 (1.56) and the “SOFA score, estimated difference (SE) vs. placebo” value (patients with low sTREM-1 at baseline (below median 433 pg/mL), Day 5, 0.3 mg/kg/h, listed as nangibotide, 0.3 mg/kg) was −0.71. The “SOFA score evolution (change versus baseline, LOCF), LSMean (SE)” value [7] was −1.93 (1.21), the “SOFA score, estimated difference (SE) vs. placebo” value [7] was 0.06 (1.65) and the “SOFA score evolution (change versus baseline, LOCF), LSMean (SE)” value (patients with low sTREM-1 at baseline (below median 433 pg/mL), Day 5, 3.0 mg/kg/h) was −1.87 (1.46). For the same substance, the “SOFA score, estimated difference (SE) vs. placebo” value (patients with low sTREM-1 at baseline (below median 433 pg/mL), Day 5, 3.0 mg/kg/h, 3 mg/kg) was 0.12 (−1.82), the “SOFA score, estimated difference (SE) vs. placebo” value (patients with low sTREM-1 at baseline (below median 433 pg/mL), Day 5, 3.0 mg/kg/h, listed as nangibotide, 3 mg/kg) was 0.12 and the “SOFA score evolution (change versus baseline, LOCF), LSMean (SE)” value (patients with low sTREM-1 at baseline (below median 433 pg/mL), Day 5, all nangibotide doses pooled) was −2.17 (0.73). For the same substance, the “SOFA score evolution (change versus baseline, LOCF), LSMean (SE)” value [8] was −0.65 (0.52), the “SOFA score, estimated difference (SE) vs. placebo” value [8] was 0.26 (0.75) and the “SOFA score evolution (change versus baseline, LOCF), LSMean (SE)” value [9] was −0.39 (0.54). For the same substance, the “SOFA score, estimated difference (SE) vs. placebo” value [9] was 0.53 (0.77), the “SOFA score evolution (change versus baseline, LOCF), LSMean (SE)” value [10] was −0.33 (0.54) and the “SOFA score, estimated difference (SE) vs. placebo” value [10] was 0.59 (0.76). The “SOFA score evolution (change versus baseline, LOCF), LSMean (SE)” value [11] was −0.45 (0.31), the “SOFA score, estimated difference (SE) vs. placebo” value [11] was 0.46 (0.62) and the “SOFA score evolution (change versus baseline, LOCF), LSMean (SE)” value [12] was −2.27 (0.63). The “SOFA score, estimated difference (SE) vs. placebo” value [12] was −0.94 (0.91), the “SOFA score evolution (change versus baseline, LOCF), LSMean (SE)” value [13] was −1.97 (0.65) and the “SOFA score, estimated difference (SE) vs. placebo” value [13] was −0.64 (0.92). For the same substance, the “SOFA score evolution (change versus baseline, LOCF), LSMean (SE)” value [14] was −0.91 (0.65), the “SOFA score, estimated difference (SE) vs. placebo” value [14] was 0.42 (0.92) and the “SOFA score evolution (change versus baseline, LOCF), LSMean (SE)” value [15] was −1.72 (0.37). The “SOFA score, estimated difference (SE) vs. placebo” value [15] was −0.38 (0.75), the “SOFA score evolution (change versus baseline, LOCF), LSMean (SE)” value [16] was −2.67 (0.68) and the “SOFA score, estimated difference (SE) vs. placebo” value [16] was −1.42 (0.98). For the same substance, the “SOFA score evolution (change versus baseline, LOCF), LSMean (SE)” value [17] was −1.87 (0.71), the “SOFA score, estimated difference (SE) vs. placebo” value [17] was −0.62 (1.00) and the “SOFA score evolution (change versus baseline, LOCF), LSMean (SE)” value [18] was −0.91 (0.70). For the same substance, the “SOFA score, estimated difference (SE) vs. placebo” value [18] was 0.34 (1.00), the “SOFA score evolution (change versus baseline, LOCF), LSMean (SE)” value [19] was −1.82 (0.40) and the “SOFA score, estimated difference (SE) vs. placebo” value [19] was −0.57 (0.81). The “SOFA score evolution (change versus baseline, LOCF), LSMean (SE)” value [20] was −2.91 (0.67), the “SOFA score, estimated difference (SE) vs. placebo” value [20] was −1.50 (0.96) and the “SOFA score evolution (change versus baseline, LOCF), LSMean (SE)” value [21] was −1.95 (0.70). The “SOFA score, estimated difference (SE) vs. placebo” value [21] was −0.53 (0.98), the “SOFA score evolution (change versus baseline, LOCF), LSMean (SE)” value [22] was −1.16 (0.69) and the “SOFA score, estimated difference (SE) vs. placebo” value [22] was 0.26 (0.98). For the same substance, the “SOFA score evolution (change versus baseline, LOCF), LSMean (SE)” value [23] was −2.00 (0.40), the “SOFA score, estimated difference (SE) vs. placebo” value [23] was −0.59 (0.80) and the “SOFA score evolution (change versus baseline, LOCF), LSMean (SE)” value (whole population, Day 5, 0.3 mg/kg/h) was −2.91 (0.71). The “SOFA score, estimated difference (SE) vs. placebo” value (whole population, Day 5, 0.3 mg/kg/h, 0.3 mg/kg) was −1.66 (1.03), the “SOFA score, estimated difference (SE) vs. placebo” value (whole population, Day 5, 0.3 mg/kg/h, listed as nangibotide, 0.3 mg/kg) was −1.66 and the “SOFA score evolution (change versus baseline, LOCF), LSMean (SE)” value [24] was −2.03 (0.74). The “SOFA score, estimated difference (SE) vs. placebo” value [24] was −0.78 (1.04), the “SOFA score evolution (change versus baseline, LOCF), LSMean (SE)” value (whole population, Day 5, 3.0 mg/kg/h) was −0.90 (0.74) and the “SOFA score, estimated difference (SE) vs. placebo” value (whole population, Day 5, 3.0 mg/kg/h, 3 mg/kg) was 0.34 (1.04). The “SOFA score, estimated difference (SE) vs. placebo” value (whole population, Day 5, 3.0 mg/kg/h, listed as nangibotide, 3 mg/kg) was 0.34, the “SOFA score evolution (change versus baseline, LOCF), LSMean (SE)” value (whole population, Day 5, all nangibotide doses pooled) was −1.95 (0.42) and the “SOFA score decrease during the first 5 days vs. placebo” value (whole population, no statistically significant differences) was “consistent numerical trend in favor of nangibotide”.
